From patent publication US20100063047A1 (KALYPSYS, INC., priority 2008, published 2010)

Assays:
human H4 = biological target: T1, human H4 (Homo sapiens, UniProt Q9H3N8); assay: In vitro histamine H4 receptor cell-based aequorin bioluminescence antagonist assay; details: CHO-K1 cells expressing human H4, aequorin and Gα16; histamine at EC80
T1 construct: host or cells: CHO-K1, also expressing mitochondrion-targeted aequorin and human Gα16
Experimental: In vitro Histamine Receptor Cell-Based Assays
The cell-based assays utilize an aequorin dependent bioluminescence signal. Doubly-transfected, stable CHO—K1 cell lines expressing human H1 or H4, mitochondrion-targeted aequorin, and (H4 only) human G protein Gα16 are obtained from Perkin-Elmer. Cells are maintained in F12 (Ham's) growth medium, containing 10% (vol./vol.) fetal bovine serum, penicillin (100 IU/mL), streptomycin (0.1 mg/mL), zeocin (0.25 mg/mL) and geneticin (0.40 mg/mL). Cell media components are from Invitrogen, Inc. One day prior to assay, the growth medium is replaced with the same, excluding zeocin and geneticin.
For assay preparation, growth medium is aspirated, and cells are rinsed with calcium-free, magnesium-free phosphate-buffered saline, followed by two to three minute incubation in Versene (Invitrogen, Inc.) at 37° C. Assay medium (DMEM:F12 [50:50], phenol-red free, containing 1 mg/mL protease-free bovine serum albumin) is added to collect the released cells, which are then centrifuged. The cell pellet is re-suspended in assay medium, centrifuged once more, and re-suspended in assay medium to a final density of 5×10^6 cells/mL. Coelenterazine-h dye (500 μM in ethanol) is added to a final concentration of 5 μM, and mixed immediately. The conical tube containing the cells is then wrapped with foil to protect the light-sensitive dye. The cells are incubated for four hours further at room temperature (approximately 21° C.) with end-over-end rotation to keep them in suspension.
Just before assay, the dye-loaded cells are diluted to 0.75×10^6 cells/mL (H1 receptor) or 1.5×10^6 cells/mL (H4 receptor) with additional assay medium. Cells are dispensed to 1536 well micro-titer plates at 3 μL/well. To assay receptor antagonism, 60 nl of 100× concentration test compounds in 100% dimethyl sulfoxide (DMSO) are dispensed to the wells, one compound per well, by passive pin transfer, and the plates are incubated for 15 minutes at room temperature. […] The pipette dispenses 3 μL/well of agonist (histamine, at twice the final concentration, where final concentration is a previously determined EC80) in assay medium, with concurrent bioluminescence detection. Agonist activity of test compounds is excluded by separate assays that measure response to test compounds immediately, without added histamine agonist.
CCD image capture on the Lumilux includes a 5 second baseline read prior to agonist addition, and generally a 40 second read per plate after agonist addition. A decrease in bioluminescence signal (measured either as area-under-the-curve, or maximum signal amplitude minus minimum signal amplitude) correlates with receptor antagonism in a dose dependent manner. The negative control is DMSO lacking any test compound. For antagonist assays, the positive controls are diphenhydramine (2-Diphenylmethoxy-N,N-dimethylethylamine, 10 μM final concentration, H1 receptor) or JNJ7777120 (1-[(5-Chloro-1H-indol-2-yl)carbonyl]-4-methyl-piperazine, 10 μM final concentration, H4 receptor). Efficacy is measured as a percentage of positive control activity.

human H1 = biological target: T2, human H1 (Homo sapiens, UniProt P35367); assay: In vitro histamine H1 receptor cell-based aequorin bioluminescence antagonist assay; details: CHO-K1 cells expressing human H1 and aequorin; histamine at EC80; read-out: H1 Antagonist EC50
T2 construct: host or cells: CHO-K1, also expressing mitochondrion-targeted aequorin
T2 sequence (P35367 whole entry): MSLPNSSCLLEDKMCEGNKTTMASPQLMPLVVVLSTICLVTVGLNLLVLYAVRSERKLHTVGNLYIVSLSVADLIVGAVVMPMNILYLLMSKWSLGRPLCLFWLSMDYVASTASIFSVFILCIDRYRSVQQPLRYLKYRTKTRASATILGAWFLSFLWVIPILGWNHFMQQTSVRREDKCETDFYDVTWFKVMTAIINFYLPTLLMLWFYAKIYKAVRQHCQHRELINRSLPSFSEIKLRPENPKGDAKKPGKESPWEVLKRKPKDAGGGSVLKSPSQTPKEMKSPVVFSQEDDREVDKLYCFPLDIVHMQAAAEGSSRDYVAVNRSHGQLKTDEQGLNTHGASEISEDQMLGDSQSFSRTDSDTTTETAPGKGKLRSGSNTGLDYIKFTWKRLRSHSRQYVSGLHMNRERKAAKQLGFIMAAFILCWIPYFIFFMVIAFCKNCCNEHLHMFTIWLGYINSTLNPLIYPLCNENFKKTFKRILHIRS
Outline: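 CHO-K1 cells stably expressing human H1 or H4 plus mitochondrial aequorin (H4 also with Gα16), loaded with 5 μM coelenterazine-h for 4 h at ~21 °C. Compounds preincubated 15 min at room temperature, then histamine at EC80 added.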

Row | EC50 (human H4) [µM] | EC50 (human H1) [µM] | Compound
1 | > 10 | > 10 | Cc1csc2ncnc(N3CCN(c4ccc(O)cc4)CC3)c12 [Example 243, 4-(4-{5-methylthieno[2,3-d]pyrimidin-4-yl}piperazin-1-yl)phenol]
2 | > 10 | > 10 | Cc1csc2ncnc(N3CC(C)CC(C)C3)c12 (stereo not shown) [Example 199, 3,5-dimethyl-1-{5-methylthieno[2,3-d]pyrimidin-4-yl}piperidine]
3 | > 10 | > 10 | Cc1cccc(N2CCN(c3ncnc4scc(C)c34)CC2)c1C [Example 254, 1-(2,3-dimethylphenyl)-4-{5-methylthieno[2,3-d]pyrimidin-4-yl}piperazine]
4 | > 10 | > 10 | Cc1csc2ncnc(NN3CCOCC3)c12 [Example 81, N-{5-methylthieno[2,3-d]pyrimidin-4-yl}morpholin-4-amine]
5 | > 10 | > 10 | Cc1csc2ncnc(NN3CCN(C)CC3)c12 [Example 93, 4-methyl-N-{5-methylthieno[2,3-d]pyrimidin-4-yl}piperazin-1-amine]
6 | > 10 | > 10 | CCOC(=O)CC1C(=O)NCCN1c1ncnc2scc(C)c12 (stereo not shown) [Example 249, ethyl 2-(1-{5-methylthieno[2,3-d]pyrimidin-4-yl}-3-oxopiperazin-2-yl)acetate]
7 | > 10 | > 10 | Cc1cnc(CNc2ncnc3scc(C)c23)cn1 [Example 101, 5-methyl-N-[(5-methylpyrazin-2-yl)methyl]thieno[2,3-d]pyrimidin-4-amine]
8 | > 10 | > 10 | Cc1csc2ncnc(NCCCn3ccnc3)c12 [Example 105, N-[3-(1H-imidazol-1-yl)propyl]-5-methylthieno[2,3-d]pyrimidin-4-amine]
9 | > 10 | > 10 | Cc1csc2ncnc(NCCO)c12 [Example 56, 2-({5-methylthieno[2,3-d]pyrimidin-4-yl}amino)ethan-1-ol]
10 | > 10 | > 10 | Cc1csc2ncnc(NCC3(O)CCCCC3)c12 [Example 158, 1-[({5-methylthieno[2,3-d]pyrimidin-4-yl}amino)methyl]cyclohexan-1-ol]
11 | > 10 | > 10 | Cc1csc2ncnc(NC3CONC3=O)c12 (stereo not shown) [Example 80, 4-({5-methylthieno[2,3-d]pyrimidin-4-yl}amino)-1,2-oxazolidin-3-one]
12 | > 10 | > 10 | Cc1csc2ncnc(NCCN(C)C)c12 [Example 70, dimethyl[2-({5-methylthieno[2,3-d]pyrimidin-4-yl}amino)ethyl]amine]
13 | > 10 | > 10 | COc1cc2c(cc1OC)CN(c1ncnc3scc(C)c13)CC2 [Example 286, 6,7-dimethoxy-2-{5-methylthieno[2,3-d]pyrimidin-4-yl}-1,2,3,4-tetrahydroisoquinoline]
14 | > 10 | > 10 | Cc1csc2ncnc(N3CCCC(C(N)=O)C3)c12 (stereo not shown) [Example 213, 1-{5-methylthieno[2,3-d]pyrimidin-4-yl}piperidine-3-carboxamide]
15 | > 10 | > 10 | Cc1ccc(Cl)cc1N1CCN(c2ncnc3scc(C)c23)CC1 [Example 275, 1-(5-chloro-2-methylphenyl)-4-{5-methylthieno[2,3-d]pyrimidin-4-yl}piperazine]
16 | > 10 | > 10 | Cc1csc2ncnc(N3CCN(c4ccc(C(F)(F)F)cn4)CC3)c12 [Example 2, 5-methyl-4-(4-(5-(trifluoromethyl)pyridin-2-yl)piperazin-1-yl)thieno[2,3-d]pyrimidine]
17 | > 10 | > 10 | Cc1csc2ncnc(NCCCO)c12 [Example 62, 3-({5-methylthieno[2,3-d]pyrimidin-4-yl}amino)propan-1-ol]
18 | > 10 | > 10 | Cc1csc2ncnc(N(C)C[C@H](O)c3ccc(O)c(O)c3)c12 [Example 248, 4-[(1R)-1-hydroxy-2-[methyl({5-methylthieno[2,3-d]pyrimidin-4-yl})amino]ethyl]benzene-1,2-diol]

Row | EC50 (human H4) [µM] | EC50 (human H1) [µM] | Compound
19 | > 10 | > 10 | Cc1csc2ncnc(N(C)Cc3cccc4ccccc34)c12 [Example 274, N,5-dimethyl-N-(naphthalen-1-ylmethyl)thieno[2,3-d]pyrimidin-4-amine]
20 | > 10 | > 10 | Cc1csc2ncnc(NCc3ccc(N(C)C)cc3)c12 [Example 170, N-{[4-(dimethylamino)phenyl]methyl}-5-methylthieno[2,3-d]pyrimidin-4-amine]
21 | > 10 | > 10 | Cc1csc2ncnc(N3CCSCC3)c12 [Example 197, 4-{5-methylthieno[2,3-d]pyrimidin-4-yl}thiomorpholine]
22 | > 10 | > 10 | Cc1csc2ncnc(N3CCN(C(=O)OC(C)(C)C)C[C@H]3CO)c12 [Example 283, tert-butyl (3S)-3-(hydroxymethyl)-4-{5-methylthieno[2,3-d]pyrimidin-4-yl}piperazine-1-carboxylate]
23 | > 10 | > 10 | Cc1csc2ncnc(N(C)CC(O)c3ccc(O)cc3)c12 (stereo not shown) [Example 238, 4-{1-hydroxy-2-[methyl({5-methylthieno[2,3-d]pyrimidin-4-yl})amino]ethyl}phenol]
24 | > 10 | > 10 | Cc1csc2ncnc(CCNc3ccc(Cl)cc3)c12 [Example 32, 4-chloro-N-(2-(5-methylthieno[2,3-d]pyrimidin-4-yl)ethyl)aniline]
25 | > 10 | > 10 | CCN(CC)CCNc1ncnc2scc(C)c12 [Example 94, diethyl[2-({5-methylthieno[2,3-d]pyrimidin-4-yl}amino)ethyl]amine]
26 | > 10 | > 10 | Cc1csc2ncnc(N(C)CC(C)C)c12 [Example 185, N,5-dimethyl-N-(2-methylpropyl)thieno[2,3-d]pyrimidin-4-amine]
27 | > 10 | > 10 | CCNc1ncnc2scc(C)c12 [Example 50, N-ethyl-5-methylthieno[2,3-d]pyrimidin-4-amine]
28 | > 10 | > 10 | CCN(c1ncnc2scc(C)c12)C(Cc1ccccc1)c1ccco1 (stereo not shown) [Example 282, N-ethyl-N-[1-(furan-2-yl)-2-phenylethyl]-5-methylthieno[2,3-d]pyrimidin-4-amine]
29 | > 10 | > 10 | Cc1csc2ncnc(N3Cc4ccccc4C3)c12 [Example 208, 2-{5-methylthieno[2,3-d]pyrimidin-4-yl}-2,3-dihydro-1H-isoindole]
30 | > 10 | > 10 | Cc1csc2ncnc(NCC(C)C)c12 [Example 61, 5-methyl-N-(2-methylpropyl)thieno[2,3-d]pyrimidin-4-amine]
31 | > 10 | > 10 | Cc1csc2ncnc(N(C)Cc3ccccc3)c12 [Example 209, N-benzyl-N,5-dimethylthieno[2,3-d]pyrimidin-4-amine]
32 | > 10 | > 10 | CCN(c1ncnc2scc(C)c12)C1CCCCC1 [Example 210, N-cyclohexyl-N-ethyl-5-methylthieno[2,3-d]pyrimidin-4-amine]
33 | > 10 | > 10 | CCN(c1ncnc2scc(C)c12)C(C)C [Example 186, N-ethyl-5-methyl-N-(propan-2-yl)thieno[2,3-d]pyrimidin-4-amine]
34 | > 10 | > 10 | Cc1csc2ncnc(N3C(C)CCCC3C)c12 (stereo not shown) [Example 201, 2,6-dimethyl-1-{5-methylthieno[2,3-d]pyrimidin-4-yl}piperidine]
35 | > 10 | > 10 | C#CCN(Cc1ccc(Cl)cc1Cl)c1ncnc2scc(C)c12 [Example 281, N-[(2,4-dichlorophenyl)methyl]-5-methyl-N-(prop-2-yn-1-yl)thieno[2,3-d]pyrimidin-4-amine]
